Non-standard residues stand in square brackets, D forms with d. Residues, ends and D or L forms follow the SMILES beside them.
Tests used:
[1] = test system: PE cells (normal cells); assay: Annexin V and caspase 3,7 flow cytometry; assay type: cell-based; settings: 10 μM, two hours
[2] = test system: COLO587; assay: Cell viability assay (WST-8); assay type: cell-based
Text: (§1) Correlation between IC50 values was observed.

[3] = test system: SN-19; assay: Cell viability assay (WST-8); assay type: cell-based
Text: as §1

[4] = test system: PE cell (pancreatic epidermal); assay: Cell viability assay (WST-8); assay type: cell-based; settings: 72 h
Text: as §1

[5] = test system: SK-BR-3
[6] = test system: U251
[7] = test system: MRC-5; settings: 72 h
[8] = test system: T47D; assay: Cell viability assay (WST-8); assay type: cell-based, human; settings: for IC50: 72 h
Text: as §1

[9] = test system: HC cell (hepatocyte cell); assay: Cell viability assay (WST-8); assay type: cell-based, human; settings: 72 h
Text: as §1

[10] = test system: T47D; assay: Annexin V and caspase 3,7 flow cytometry; assay type: cell-based, human; settings: 10 μM, two hours
Experimental: T47D and PE cells were incubated with TfR-lytic chimeric peptide (10 μM) and lytic peptide (10 μM) for two hours. Annexin V (FIG. 26A) and caspase 3,7 activity (FIG. 26B) were detected in the green channel, and propidium iodide staining was detected in the red channel, and flow cytometry analysis was performed. In T47D cells treated with TfR-lytic chimeric peptide, the ratio of the right half panel showing Annexin V-positive cells and caspase 3,7-activated cells increased.

[11] = test system: LNCaP; settings: for IC50: 72 h
[12] = test system: MDA-MB-231
[13] = test system: T47D; assay: Short-exposure killing of cancer cells (WST-8); assay type: cell-based, human; settings: 1 to 180 minutes exposure
Experimental: The cells were further cultured for 72 hours.

[14] = test system: T47D breast cancer cells; assay: Membrane permeabilization (calcein); assay type: cell-based, human; settings: 10 μM, 0 to 15 minutes
Experimental: Furthermore, after addition of TfR-lytic chimeric peptide at concentration of 10 μM, the cells in calcein solution were observed after 0 minute, five minutes, 10 minutes and 15 minutes.

[15] = test system: HEK293; settings: 72 h
[16] = test system: OE19; settings: 72 h
[17] = test system: U937; settings: 72 h
[18] = test system: BxPC-3; settings: 72 h

CSCC[C@H](NC(=O)[C@@H]1CCCN1C(=O)[C@@H]1CCCN1C(=O)[C@H](CCCNC(=N)N)NC(=O)[C@H](Cc1c[nH]cn1)NC(=O)[C@@H](N)[C@@H](C)O)C(=O)N[C@@H](Cc1c[nH]c2ccccc12)C(=O)N[C@@H](CO)C(=O)N1CCC[C@H]1C(=O)N[C@H](C(=O)N[C@@H](Cc1c[nH]c2ccccc12)C(=O)N1CCC[C@H]1C(=O)NCC(=O)NCC(=O)NCC(=O)N[C@@H](CCCCN)C(=O)N[C@@H](CC(C)C)C(=O)N[C@H](CC(C)C)C(=O)N[C@@H](CC(C)C)C(=O)N[C@@H](CCCCN)C(=O)N[C@H](CC(C)C)C(=O)N[C@@H](CC(C)C)C(=O)N[C@H](CCCCN)C(=O)N[C@H](CCCCN)C(=O)N[C@@H](CC(C)C)C(=O)N[C@@H](CC(C)C)C(=O)N[C@@H](CCCCN)C(=O)N[C@H](CC(C)C)C(=O)N[C@@H](CC(C)C)C(=O)N[C@@H](CCCCN)C(=O)N[C@@H](CCCCN)C(=O)N[C@@H](CCCCN)C(=O)O)C(C)C [TfR-lytic peptide] (H-THRPPMWSPVWPGGGKL[dL]LK[dL]L[dK][dK]LLK[dL]LKKK-OH; N-terminus and C-terminus assumed)
percentage of Annexin V-positive cells and caspase 3,7-activated cells [1]: did not increase
IC50 ([2]; 72 h): 6.9 µM
IC50 ratio Lytic/TfR-lytic ([2]; COLO587): 2.0
IC50 ([3]; 72 h): 8.2 µM
IC50 ratio Lytic/TfR-lytic ([3]; SN-19): 3.1
IC50 [4]: > 20 µM
IC50 ([5]; 72 h): 5.3 µM
IC50 ratio Lytic/TfR-lytic ([5]; SK-BR-3): 5.0
IC50 ([6]; 72 h): 6.8 µM
IC50 ratio Lytic/TfR-lytic ([6]; U251): 2.8
IC50 [7]: > 20 µM
IC50 [8]: 4.8 µM
IC50 ratio Lytic/TfR-lytic ([8]; T47D): 3.8
IC50 [9]: > 20 µM
ratio of Annexin V-positive cells and caspase 3,7-activated cells [10]: increased
IC50 [11]: 6.2 µM
IC50 ratio Lytic/TfR-lytic ([11]; LNCaP): 2.7
IC50 ([12]; 72 h): 6.7 µM
IC50 ratio Lytic/TfR-lytic ([12]; MDA-MB-231): 4.4
rapid killing of cancer cells [13]: rapidly kill T47D cancer cells
membrane permeation [14]: permeated the membrane was observed

CC(C)C[C@H](NC(=O)[C@H](CC(C)C)NC(=O)[C@@H](CCCCN)NC(=O)[C@@H](CCCCN)NC(=O)[C@H](CC(C)C)NC(=O)[C@@H](CC(C)C)NC(=O)[C@H](CCCCN)NC(=O)[C@H](CC(C)C)NC(=O)[C@@H](CC(C)C)NC(=O)[C@H](CC(C)C)NC(=O)[C@H](CCCCN)NC(=O)CNC(=O)CNC(=O)CNC(=O)[C@H](CCCNC(=N)N)NC(=O)[C@@H]1CCCN1C(=O)[C@@H]1CCCN1C(=O)[C@H](CC(C)C)NC(=O)[C@H](Cc1c[nH]c2ccccc12)NC(=O)[C@@H](NC(=O)[C@H](C)N)[C@@H](C)O)C(=O)N[C@@H](CCCCN)C(=O)N[C@H](CC(C)C)C(=O)N[C@@H](CC(C)C)C(=O)N[C@@H](CCCCN)C(=O)N[C@@H](CCCCN)C(=O)N[C@@H](CCCCN)C(=O)O [VEGFR2-Lytic] (H-ATWLPPRGGGKL[dL]LK[dL]L[dK][dK]LLK[dL]LKKK-OH; N-terminus and C-terminus assumed)
IC50 [15]: > 20 µM
IC50 [16]: 7.1 µM
IC50 [7]: > 20 µM
IC50 [8]: 6.4 µM
IC50 [17]: 3.5 µM
IC50 [11]: 8.9 µM
IC50 [18]: 12.2 µM

From patent US8940863B2, “Selective anticancer chimeric peptides which bind neuropilin receptor” (Stella Pharma Corporation, priority 2008, dated 2015)
